Experimental data from patent US5106407A, “Iodones and methods for antimicrobial use” (priority 1989, dated 1992).
≈ marks a conversion by molar mass, not a printed value.

Legend:
Aspergillus niger = experiment: minimum inhibitory concentration (MIC), agar dilution; assay type: cell-based; conditions: ATCC 16404; malt yeast agar
Protocol: (§1) The minimum inhibitory concentration (MIC) for the compound of Example 19, i.e., (2-nitrophenyl)-iodonium 2,2-dimethyl-4,6-dioxo-1,3-dioxan-5-ylide was determined for 9 bacteria (using nutrient agar) and 5 yeast and fungi (using malt yeast agar). A one percent solution of this test compound (i.e., the compound of Example 19) was prepared in a mixture of acetone-water. Nutrient agar was prepared at pH 6.8 using deionized water according to standard Difco procedures. Malt yeast agar was prepared by adding 3 g Bacto yeast extract and 42 g Bacto Malt agar per liter of deionized water. The agar (nutrient agar when testing with bacteria and malt yeast agar when testing with yeast and fungi) was dispensed in 30 mL aliquots into 25×200 millimeter (mm) test tubes, capped and autoclaved for 15 min at 115° C. The test tubes containing the agar were cooled in a water bath until the temperature of the agar was 48° C. and then an appropriate amount of the one percent solution of the test compound was added (except in the controls where no test compound was added with the acetone-water) to the respective test tubes so that final concentrations of 500, 250, 100, 50, 25, 10, 5, 2.5, 1.0 and 0 parts per million (ppm) of the test compound in the agar were obtained. The agar solutions were each mixed and poured into individual petri plates so that each petri plate contained agar having a known concentration of test compound dispersed therein. After drying for 24 hr, the petri plates were inoculated with bacteria when the petri plates contained nutrient broth agar or with fungi and yeast when the petri plates contained malt yeast agar.
(§2) The petri plates were incubated at 30° C. for 48 hr and then read to determine if the test compound (i.e., the compound of Example 19) which was incorporated into the agar prevented growth of the respective bacteria. The minimum inhibitory concentration (MIC) for each bacteria was defined as the lowest concentration of the test compound which prevented growth of that bacteria.
(§3) The inoculation with the fungi and yeast was accomplished as follows. Cultures of fungi and yeast were incubated for 7 days on malt yeast agar at 30° C. These cultures were used to prepare suspensions by the following procedure. A suspension of each organism was prepared by adding 10 mL of sterile saline and 10 microliters […] of Triton ×100 to the slant. The sterile saline/Triton ×100 solution was then agitated with a sterile swab to suspend the microorganism grown on the slant. Each resulting suspension was diluted into sterile saline (1 part suspension: 9 parts sterile saline). […] The petri plates were incubated at 30° C. and read after 48 hr for yeast and 72 hr for fungi.

Candida albicans = experiment: as above; assay type: cell-based; conditions: ATCC 10231; malt yeast agar
Protocol: as §1, §2, §3

Penicillium chrysogenum = experiment: as above; assay type: cell-based; conditions: ATCC 9480; malt yeast agar
Protocol: as §1, §2, §3

Trichoderma viride = experiment: as above; assay type: cell-based; conditions: ATCC 8678; malt yeast agar
Protocol: as §1, §2, §3

[1] = tested on: mixture of bacterial organisms listed in Table 1; experiment: latex preservation test
Protocol: The latex was a vinylidene chloride-butadiene copolymer with a pH of 6.1.
Fifty gram aliquots of the latex were placed in sterile bottles and one hundred gram aliquots of the diluted cutting oil were placed in 250-mL Erlenmeyer flasks. An appropriate amount of a fresh 1 percent stock solution of (2-nitrophenyl)-iodonium 2,2-dimethyl-4,6-dioxo-1,3-dioxan-5-ylide in acetone-water was added to achieve the desired final concentrations (see Tables 5 and 6). A small portion of the respective latex or cutting oil preparation was then streaked onto Tryptic Soy Agar (TSA) petri plates using sterile cotton swabs to determine whether the preparations were sterile. If the particular preparation was sterile, it was then inoculated with an appropriate volume (0.1 mL for the latex and 0.2 mL for the cutting oil) of a mixture of equal aliquots of 24 hr cultures of each of the bacterial organisms listed in Table 1 (not the fungi and yeast). The latex samples were incubated at 30° C. and the cutting oils were agitated on a rotary shaker at room temperature. After 24 hr, all samples were again streaked on TSA. All plates were then incubated at 30° C. for 48 hr and then rated 1 to 10 according to the growth rating system described in Table 4.
The results from this first set of streaks after inoculation are listed in the columns labeled streak number 1 in Tables 5 and 6. Samples with a rating of 3 or less from streak number 1 were reinoculated as described for the first inoculation above. Samples with a rating of 4 or greater were not reinoculated. After another 24 hr all samples were again restreaked on TSA agar. The results from these second streaks were labeled streak number 2 in Tables 5 and 6. Samples were reinoculated and restreaked in this fashion for a maximum of 10 streaks. Any samples with two streaks in a row with a ten rating were not restreaked again.

[2] = tested on: Selenastrum capricornutum; experiment: algaecide test, inhibition of growth; assay type: cell-based; conditions: 96 hr incubation, read-out: growth of the algae, Percent of Control
Protocol: Using a Coulter Counter, the growth of this algea was measured after 96 hr incubation with various levels of biocide, i.e., (2-nitrophenyl)-iodonium 2,2-dimethyl-4,6-dioxo-1,3-dioxan-5-ylide.

CC1(C)OC(=O)[C-]([I+]c2ccccc2[N+](=O)[O-])C(=O)O1 [Example 19, (2-Nitrophenyl)-iodonium 2,2-dimethyl-4,6-dioxo-1,3-dioxan-5-ylide]
MIC (Aspergillus niger): 250 µg/mL (≈ 639 µM)
MIC (Candida albicans): 100 µg/mL (≈ 256 µM)
MIC (Penicillium chrysogenum): 100 µg/mL (≈ 256 µM)
MIC (Trichoderma viride): 250 µg/mL (≈ 639 µM)
growth rating ([1]; 25 ppm, streak 1): 1 (0)
growth rating ([1]; 25 ppm, streak 2): 9
growth rating ([1]; 25 ppm, streak 3): 1 (0)
growth rating ([1]; 25 ppm, streak 4): 1 (0)
growth rating ([1]; 25 ppm, streak 5): 1 (0)
growth rating ([1]; 25 ppm, streak 6): 1 (0)
growth rating ([1]; 25 ppm, streak 7): 1 (0)
growth rating ([1]; 25 ppm, streak 8): 1 (0)
growth rating ([1]; 50 ppm, streak 1): 1 (0)
growth rating ([1]; 50 ppm, streak 3): 1 (0)
growth rating ([1]; 50 ppm, streak 4): 1 (0)
growth rating ([1]; 50 ppm, streak 5): 1 (0)
growth rating ([1]; 50 ppm, streak 6): 1 (0)
growth rating ([1]; 50 ppm, streak 7): 1 (0)
growth rating ([1]; 50 ppm, streak 8): 1 (0)
growth rating ([1]; 50 ppm, streak 9): 1 (0)
growth rating ([1]; 50 ppm, streak 10): 1 (0)
growth rating ([1]; 100 ppm, streak 1): 1 (0)
growth rating ([1]; 100 ppm, streak 3): 1 (0)
growth rating ([1]; 100 ppm, streak 4): 1 (0)
growth rating ([1]; 100 ppm, streak 5): 1 (0)
growth rating ([1]; 100 ppm, streak 6): 1 (0)
growth rating ([1]; 100 ppm, streak 7): 1 (0)
growth rating ([1]; 100 ppm, streak 8): 1 (0)
growth rating ([1]; 100 ppm, streak 9): 1 (0)
growth rating ([1]; 100 ppm, streak 10): 1 (0)
growth rating ([1]; 250 ppm, streak 1): 1 (0)
growth rating ([1]; 250 ppm, streak 2): 1 (0)
growth rating ([1]; 250 ppm, streak 3): 1 (0)
growth rating ([1]; 250 ppm, streak 4): 1 (0)
growth rating ([1]; 250 ppm, streak 5): 1 (0)
growth rating ([1]; 250 ppm, streak 6): 1 (0)
growth rating ([1]; 250 ppm, streak 7): 1 (0)
growth rating ([1]; 250 ppm, streak 8): 1 (0)
growth rating ([1]; 250 ppm, streak 9): 1 (0)
growth rating ([1]; 250 ppm, streak 10): 1 (0)
growth rating ([1]; 500 ppm, streak 1): 1 (0)
growth rating ([1]; 500 ppm, streak 2): 1 (0)
growth rating ([1]; 500 ppm, streak 3): 1 (0)
growth rating ([1]; 500 ppm, streak 4): 1 (0)
growth rating ([1]; 500 ppm, streak 5): 1 (0)
growth rating ([1]; 500 ppm, streak 6): 1 (0)
growth rating ([1]; 500 ppm, streak 7): 1 (0)
growth rating ([1]; 500 ppm, streak 8): 1 (0)
growth rating ([1]; 500 ppm, streak 9): 1 (0)
growth rating ([1]; 500 ppm, streak 10): 1 (0)
growth rating ([1]; 1000 ppm, streak 1): 1 (0)
growth rating ([1]; 1000 ppm, streak 2): 1 (0)
growth rating ([1]; 1000 ppm, streak 3): 1 (0)
growth rating ([1]; 1000 ppm, streak 4): 1 (0)
growth rating ([1]; 1000 ppm, streak 5): 1 (0)
growth rating ([1]; 1000 ppm, streak 6): 1 (0)
growth rating ([1]; 1000 ppm, streak 7): 1 (0)
growth rating ([1]; 1000 ppm, streak 8): 1 (0)
growth rating ([1]; 1000 ppm, streak 9): 1 (0)
growth rating ([1]; 1000 ppm, streak 10): 1 (0)
activity at 0.01 ppm ([2]; 0.01 ppm): 77%
activity at 0.1 ppm ([2]; 0.1 ppm): 2.4%
activity at 1 ppm ([2]; 1.0 ppm): 0.65%
activity at 10 ppm ([2]; 10 ppm): 0.59%
activity at 32 ppm ([2]; 32 ppm): 0.53%
